The values below come from patent US20050239723A1, “Compositions and methods useful for treatment of acne” (priority 2004, published 2005).

For one data set, the system named is acne lesions. The note with it: cited from earlier work.
Data set [1] has as its system patients with mild to moderate acne vulgaris. In words: Open label study of NV-02 in the topical treatment of mild to moderate acne vulgaris. The class given is in vivo, human. The note with it: after topical NV-02 twice daily; varied between and within patients. The method, then: The results were from a study of twenty patients (5 males, 15 females) who were enrolled with varying ethnicity: Caucasian(12), African American (6), Hispanic (1), and Asian (1). The age range was from 20 to 48 years (mean 29.6 years). All subjects received open-label PCL-016 10% gel to be applied twice daily to the face over 12 weeks.
The experiment was performed as indicated for the per protocol analysis described under FIG. 1 above.
22, 2002 • Date of last completed: May 2, 2003 • Methodology: Open label study • Number of patients (planned and analyzed): 15 patients planned, 20 enrolled, 15 completed. • Diagnosis and main criteria for inclusion: mild to moderate acne vulgaris • Test product, dose and mode of administration, batch number: NV-02 applied twice daily to affected areas of the face; Novactyl lot number 155 • Duration of treatment: twice daily for 3 months • Criteria for evaluation: • Efficacy: Total lesion counts, inflammatory lesion count, non-inflammatory lesion count, and Cunliffe's grade, FDA scale • Safety: Adverse events, PCL-0 16 plasma levels, serum chemistry, complete blood count • Statistical Methods: descriptive statistics of patient population, patient demographics, and lesion counts, etc.; changes in lesion counts relative to baseline; percent reduction in lesion counts. […]

In data set [2] the test system is Propionibacterium acnes ATCC #11827. In words: Antimicrobial susceptibility testing (MIC) by the agar dilution method. The format is cell-based. The following applies: Cutibacterium acnes. (In agar dilution the substance is mixed into plates at graded concentrations.)
For the next data set, the system named is skin. Nature of the data set: Cumulative irritation study (cream vehicle). The format is in vivo. The following applies: different (cream) vehicle.

≈ marks a conversion by molar mass, not a printed value. Read-outs that look alike come from different tables or passages of the source.

In the case of `CC1=C(/C=C/C(C)=C/C=C/C(C)=C/C(=O)O)C(C)(C)CCC1` [Tretinoin], in the data set on acne lesions (topical agent on the market), the “reduction of total lesions counts” value was 32-45%. Besides, the photosensitization entry in the data set on acne lesions (topical) is listed as “photosensitizing”.

Consider `O=C(O)c1ccccn1` [Picolinic acid, pyridine-2-carboxylic acid], for which, in data set [1], the “absorption into the systemic circulation (plasma levels)” value was “Small amounts”. For the same molecule, in data set [2] (ATCC11827, P. acnes ATCC #11827, Supplemented Brucella agar with blood, 48-72 hours at 35±2° C., anaerobic, read-out: Minimum Inhibitory Concentration (MIC): lowest concentration that visibly prevented growth), the MIC came out at 500 µg/mL (≈ 4060 µM). Besides, the “risk of topical irritation to the skin” value with skin is on record as “low risk of topical irritation”.

As to `CCCCc1ccc(C(=O)O)nc1` [fusaric acid], the MIC in data set [2] (ATCC11827, read-out: Minimum Inhibitory Concentration (MIC): lowest concentration that visibly prevented growth) was found to be 100 µg/mL (≈ 558 µM).
